Read-outs that look alike come from different tables or passages of the source.
Key:
[1] = tested on: apoptotic proteins in DU-145 cells; experiment: Western blot of apoptotic proteins; type: cell-based, human; conditions: DU-145, 5 µM, 24 h
Experimental: Western blot analysis was conducted to evaluate changes in protein expression levels before and after treatment. In brief, DU-145 cells were treated with 5 µM of compound 4, and upon completing the designated treatment duration, cell lysis was achieved using RIPA buffer (Thermo Scientific, USA), supplemented with a protease inhibitor cocktail (Thermo Scientific, USA). Subsequently, the resulting lysates were chilled on ice for 30 min and then centrifuged at 10,000 rpm for 15 min to remove cellular debris. Total protein concentration was determined using the BCA assay (Thermo Scientific, USA). Equivalent quantities of cell lysates were separated using NuPAGE 4–12% gels (Life Technologies, Carlsbad, CA, USA), followed by electro-transfer onto a PVDF membrane. Various antibodies were employed to investigate protein expression levels, with detection accomplished using the Enhanced Chemiluminescent reagent (Life Technologies, USA). All antibodies utilized in this study were procured from Cell Signaling Technologies (Danvers, MA, USA).

MDA-MB-231 = experiment: MTT cell viability assay, MDA-MB-231; type: cell-based, human
Experimental: (§1) The cell lines were purchased from the American Type Culture Collection (ATCC). The four tumor cell lines used were as follows: MDA-MB-231 (triple-negative breast cancer), HTB-54 (lung cancer), DU-145 (prostate cancer), and HCT-116 (colon cancer), and the non-tumoral cell line 185-B5 (mammary tissue) were grown in Roswell Park Memorial Institute (RPMI) 1640 medium culture (Thermo Scientific, USA), supplemented with 10% fetal bovine serum (FBS) (Thermo Scientific, USA) and 1% of antibiotics (10,000 units/mL penicillin and 10 mg/mL streptomycin (Thermo Scientific, USA)). Cells were preserved in tissue culture flasks at 37 °C and 5% CO2. The culture medium was replaced every two to three days.
(§2) Cell viability was determined using the MTT colorimetric assay. A total of 10,000 cells were seeded in each well in a 96-well plate for 24 h. Then, cells were incubated with the corresponding concentration of each tested compound and with DMSO (1%) as control for 48 h. Each compound was dissolved in DMSO at a stock concentration of 0.01 M. Firstly, each compound was tested at 2 concentrations (10 µM and 50 µM) in four human tumoral cell lines MDA-MB-231, HTB-54, DU-145, and HCT-116. Serial dilutions from stock concentration with culture medium were prepared. […] The cell viability was determined by the addition of 20 µL of MTT and its incubation for 2.5 h. Later, the culture medium was removed, and 50 µL of DMSO was added to dissolve formazan crystals. The absorbance was measured at 550 nm. Inhibitory concentration 50 (IC50) and selectivity index (SI) were calculated. Three different experiments were performed independently.
(§3) Cell viability results are expressed as the mean ± standard deviation (SD), and experiments were independently performed thrice in triplicates. IC50 values were determined using a non-linear curve regression analysis calculated by OriginPro 9.0 software.

DU-145 cells [2] = experiment: Muse Caspase-3/7 assay; type: cell-based, human; conditions: DU-145, 2.5 and 5 µM, 48 h
Experimental: (§4) The apoptosis assays were conducted using the Muse Caspase-3/7 assay kit and the Annexin V/7-AAD kit (EMD Millipore, Darmstadt, Germany) following the manufacturer’s instructions. Initially, DU-145 cells were seeded in 6-well plates at a density of 1 × 10^5 cells per well. After 24 h of incubation, the cells received treatment with 2.5 µM and 5 µM of compound 4. Subsequently, the cells were incubated for 48 h. Upon completion of the treatment period, the cells were harvested using enzyme-free Cell Dissociation Buffer. The samples were then subjected to the appropriate dyes according to the manufacturer’s instructions and analyzed using the Muse Cell Analyzer (Merck Millipore, Darmstadt, Germany).

HTB-54 = experiment: MTT cell viability assay, HTB-54; type: cell-based, human; conditions: 48 h
Experimental: as §1, §2, §3

[3] = tested on: MDA-MB-231, HTB-54, and DU-145; experiment: MTT dose-response in the three tumoral cell lines; type: cell-based, human; conditions: 48 h, read-out: IC50 toward the tumoral cell lines
Experimental: as §2, §3

DU-145 cells [4] = experiment: Muse Annexin V/7-AAD apoptosis assay; type: cell-based, human; conditions: DU-145, 2.5 μM, 48 h
Experimental: as §4
Apoptosis was assessed using the Muse Annexin V & Dead Cell assay kit following the manufacturer’s guidelines.

[5] = tested on: panel of 60 cancer cell lines; experiment: NCI60 Five-Dose assay; type: cell-based; conditions: Five-Dose assay 0.01–100 µM, 48 h, 60 cell line panel
Experimental: (§5) The ten compounds with the highest cell growth inhibition activity were submitted to the Developmental Therapeutics Program (DTP) of the National Cancer Institute (NCI). The assay consists of the evaluation of the cytotoxicity by a One-Dose screening at 10^−5 M against a panel of 60 cancer cell lines of different tumors (leukemia, lung, central nervous system (CNS), melanoma, ovarian, renal, prostate, and breast cancer cell lines). […] A range of 5000–40,000 cells/well were seeded and cultured in RPMI 1640 containing 5% of FBS and 2 mM L-glutamine and were inoculated into 96-well microtiter plates in 100 µL. The microtiter plates are incubated at 37 °C and 5% humidified CO2 for 24 h prior to the addition of experimental drugs. After that, an experimental drug was added, and the microtiter was incubated for 48 h.

HCT-116 = experiment: MTT cell viability assay, HCT-116; type: cell-based, human; conditions: 10 µM, 48 h, MTT screening (Figure S1)
Experimental: as §1, §2, §3

184-B5 = experiment: MTT cell viability assay, non-malignant 184-B5; type: cell-based; conditions: Homo sapiens, 48 h, mean ± SD of three experiments, read-out: IC50 184-B5 (Breast, non-tumoral)
Experimental: as §1, §2, §3

[6] = tested on: MDA-MB-231, HTB-54, DU-145, and HCT-116; experiment: MTT initial screening in four tumor cell lines; type: cell-based; conditions: Homo sapiens, in at least three cell lines, 48 h, read-out: cell growth inhibition
Experimental: as §2

DU-145 [7] = experiment: MTT cell viability assay, DU-145; type: cell-based, human; conditions: 48 h
Experimental: as §1, §2, §3

[8] = tested on: panel of 60 cancer cell lines; experiment: NCI60 One-Dose screening; type: cell-based; conditions: 1·10^−5 M, 48 h, mean of 60 cancer cell lines
Experimental: as §5

MDA-MB-231 cells = conditions: cited from earlier work
DU-145 [9] = tested on: DU-145; parameters: method as in PMID 11306488; conditions: cited from earlier work
[10] = 10 µM, MTT screening (Figure S1)

In the case of `CC(=O)Oc1ccccc1C(=O)[Se]C(=NC(C)C)NC(C)C` [Compound 4], the Bax expression [1] is reported as “upregulation”, the Bcl-2 expression [1] is reported as “Downregulation” and the “caspase-3 cleavage and activation” value [1] is reported as “increased the cleavage and activation”. For the same molecule, the “expression of pro-caspase-9” value [1] was “reduction”, the “percentage of cell growth, MDA-MB-231” value (MDA-MB-231; 10 µM, 48 h, MTT screening (Figure S1)) was -41.78% and the IC50 (MDA-MB-231; Homo sapiens, MDA-MB-231, MTT, 48 h, mean ± SD of three experiments, read-out: IC50 MDA-MB-231 (Breast)) was 5.48 ± 0.42 µM. The “Selectivity index (SI)” value (MDA-MB-231; IC50 184-B5/IC50 MDA-MB-231) was 1.75, the “caspase 3/7 activity” value (DU-145 cells [2]) was “dose-dependent increase” and the “percentage of cell growth, HTB-54” value (HTB-54; [10]) was -34.81%. For the same molecule, the IC50 (HTB-54; Homo sapiens, HTB-54, MTT, mean ± SD of three experiments, read-out: IC50 HTB-54 (Lung)) was 7.2 ± 1.81 µM, the IC50 [3] was less than 7.5 µM and the IC50 ([3]; Homo sapiens) was less than 10 µM. For the same molecule, the “cells exhibiting signs of apoptosis” value (DU-145 cells [4]) was “over 25%”, the GI50 [5] was less than 2 µM and the “percentage of cell growth, HCT-116” value (HCT-116) was 36.77%. For the same molecule, the IC50 (184-B5) was 9.6 ± 0.97 µM, the inhibition at 10 µM [6] was greater than 50% and the “percentage of cell growth, DU-145” value (DU-145 [7]; [10]) was -82.47%. The IC50 (DU-145 [7]; Homo sapiens, DU-145, MTT, mean ± SD of three experiments, read-out: IC50 DU-145 (Prostate)) was 5.06 ± 0.02 µM and the “mean value of cell growth, One-Dose assay” value [8] was −67.93%.
For `O=[Se]=O` [SeO2], the cell viability (MDA-MB-231 cells; MDA-MB-231) is given as “at least 50%”.
For `[Se]` [elemental Se], the “effect on cell growth” value (MDA-MB-231 cells; MDA-MB-231 cells incubated alone with Se) is listed as “no effect on cell growth” and the “type of cell death” value (DU-145 [9]) is listed as “apoptotic cell death”.

— article PMC10891803, “Seleno-Warfare against Cancer: Decoding Antitumor Activity of Novel Acylselenoureas and Se-Acylisoselenoureas” (Pharmaceutics, 2024)
